Experiment: molar heat capacity at constant pressure; xn = mol fraction of the nth substance listed
Details: 101 kPa, Liquid, Small sample (50 mg) DSC

CC1=CC[C@H]2C[C@@H]1C2(C)C [(S)-2-pinene] + C=C1CCC2CC1C2(C)C
molar heat capacity at constant pressure [J/K/mol]
Details	x1 = 0.1002	x1 = 0.2041	x1 = 0.2997	x1 = 0.3922	x1 = 0.5012	x1 = 0.5907	x1 = 0.7026	x1 = 0.7987	x1 = 0.9002	x1 = 1
313.16 K	249.31	250.67	250.67	252.03	250.67	249.31	250.67	252.03	253.4	250.67
318.16 K	252.03	252.03	252.03	253.4	253.4	252.03	253.4	253.4	254.76	252.03
323.16 K	256.12	254.76	256.12	256.12	254.76	254.76	256.12	254.76	256.12	256.12
328.22 K	257.48	256.12	257.48	258.84	256.12	257.48	258.84	256.12	258.84	257.48
333.22 K	260.21	258.84	258.84	260.21	258.84	261.57	260.21	257.48	260.21	260.21
338.19 K	264.29	261.57	262.93	262.93	262.93	262.93	262.93	261.57	262.93	264.29
343.18 K	267.02	265.66	267.02	265.66	265.66	267.02	264.29	264.29	265.66	267.02
348.15 K	269.74	268.38	269.74	268.38	269.74	268.38	267.02	267.02	268.38	269.74
353.18 K	273.83	272.47	272.47	271.11	272.47	272.47	269.74	269.74	269.74	272.47
358.15 K	275.19	273.83	273.83	273.83	275.19	275.19	272.47	271.11	272.47	275.19
363.18 K	277.92	276.56	276.56	276.56	277.92	277.92	273.83	275.19	275.19	277.92
